Laboratory results: EPA's ToxValDB 9.5 (doi:10.2903/j.efsa.2013.3166)
Values after ≈ are worked out from the molar mass of the structure shown.

Assays:
Apis mellifera = details: acute, duration: 48 hours, mortality
Canidae = details: chronic; duration: 1 years; oral; Dog Other; food consumption
Colinus virginianus = details: for LD50: acute, oral, mortality
Lepomis macrochirus = details: acute; duration: 96 hours; mortality
Perca sp. = details: acute; duration: 96 hours; mortality
Pimephales promelas = details: acute; mortality
Typhlodromus pyri = test: LR50; higher = less toxic; details: not reported; mortality
[1] = acute, duration: 14 days, mortality

Structure (SMILES): CC(C)(C)c1ccc(CCOc2ncnc3ccccc23)cc1 [Fenazaquin]
- LD50 (Apis mellifera; dermal): 1.21 µg/piece
- LD50 (Apis mellifera; oral, unspecified): 4.29 µg/piece
- NOAEL (Canidae): 5 mg/kg-day
- LD50 (Colinus virginianus; diet): > 1170 mg/kg-day
- LD50 (Colinus virginianus): 1750 mg/kg-day
- NOEC (Colinus virginianus; reproduction developmental): 80.3 mg/kg-day
- LC50 (Folsomia candida; [1]): > 1000 mg/kg
- NOEC (Folsomia candida; chronic/long-term, duration: 28 days): 23 mg/kg
- LC50 (Lepomis macrochirus): 34.1 ng/mL (≈ 0.111 µM)
- LC50 (Perca sp.): 3.2 ng/mL (≈ 0.0104 µM)
- LC50 (Pimephales promelas): 4.2 ng/mL (≈ 0.0137 µM)
- LD50 (Rattus norvegicus; acute, oral, M, mortality): 134 mg/kg-day
- NOAEL (Rattus norvegicus; chronic, duration: 2 years, oral, histopathology: nonneoplastic): 0.46 mg/kg-day
- NOEL (Rattus norvegicus; reproduction developmental): 25 mg/kg-day
- NOAEL (Rattus norvegicus; reproduction developmental, food consumption): 10 mg/kg-day
- LC50 (Tagia sp.; [1]): 26.5 mg/kg
- NOEC (Tagia sp.; chronic/long-term, duration: 8 weeks): 1.25 mg/kg
- LR50 (Typhlodromus pyri): < 2 g/ha
